Results reported in paper PMC7017600 (Antiviral research, 2019).
pIC50: −log10 of the molar value. Structures can show the parent of a compound that is named as a salt. Where two headings read alike, the source gives them in different places.

Columns and labels:
[1] = target: T1, BPLF1 1–246 (Epstein-Barr virus, UniProt P03186)
[2] = target: T1, BPLF1 1–246; test: biochemical
[3] = target: T1, BPLF1 1–246; test: K63-linked ubiquitin chain cleavage assay; type: biochemical, Epstein Barr Virus (EBV); settings: 10 μM inhibitor, 25 nM BPLF1 1–246, 2 μg K63-linked chains, overnight 37 °C, SDS gel
[4] = tested on: 293 EBV+ cells; test: Cell viability by trypan blue exclusion; settings: 48 h, concentrations up to 10 μM
[5] = tested on: EBV; test: EBV infectious virus production, titered on Raji cells; settings: 293 EBV+ cells induced with BZLF1, 48 h, at the concentrations tested
[6] = target: T2, UCH-L1 (Homo sapiens, UniProt P09936); test: Suramin selectivity, Ub-Rhodamine 110 assay; type: biochemical
T2 sequence (P09936 1-223): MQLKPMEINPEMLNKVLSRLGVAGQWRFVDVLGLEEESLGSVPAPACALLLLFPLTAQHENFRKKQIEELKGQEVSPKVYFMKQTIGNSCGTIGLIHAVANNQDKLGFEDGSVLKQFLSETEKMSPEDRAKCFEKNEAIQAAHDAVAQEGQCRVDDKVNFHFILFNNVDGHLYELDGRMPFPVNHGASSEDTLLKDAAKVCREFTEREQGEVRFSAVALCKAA

[7] = target: Bap1 (Homo sapiens, UniProt Q92560); test: Suramin selectivity, Ub-Rhodamine 110 assay; type: biochemical
Bap1, sequence (Q92560 whole entry): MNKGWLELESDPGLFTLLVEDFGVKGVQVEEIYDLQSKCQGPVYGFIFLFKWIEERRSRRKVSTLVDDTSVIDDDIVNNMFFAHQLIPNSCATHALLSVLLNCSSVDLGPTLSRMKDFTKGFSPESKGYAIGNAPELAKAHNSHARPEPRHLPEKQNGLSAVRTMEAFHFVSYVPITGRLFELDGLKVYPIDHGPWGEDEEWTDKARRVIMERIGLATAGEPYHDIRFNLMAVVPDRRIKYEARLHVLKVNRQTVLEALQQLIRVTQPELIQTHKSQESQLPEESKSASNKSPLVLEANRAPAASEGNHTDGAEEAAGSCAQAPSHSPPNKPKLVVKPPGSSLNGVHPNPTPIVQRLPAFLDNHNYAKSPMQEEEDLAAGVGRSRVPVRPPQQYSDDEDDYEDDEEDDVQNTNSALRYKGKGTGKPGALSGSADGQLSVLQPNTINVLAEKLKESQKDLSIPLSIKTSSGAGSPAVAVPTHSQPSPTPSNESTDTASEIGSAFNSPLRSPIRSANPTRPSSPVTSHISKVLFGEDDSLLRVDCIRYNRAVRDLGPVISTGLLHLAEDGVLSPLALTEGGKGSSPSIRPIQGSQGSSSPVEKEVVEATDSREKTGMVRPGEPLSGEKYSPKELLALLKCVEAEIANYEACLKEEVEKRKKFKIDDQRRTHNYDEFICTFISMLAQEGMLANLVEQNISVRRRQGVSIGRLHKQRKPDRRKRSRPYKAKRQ

[8] = target: T3, UCH-L5 (Homo sapiens, UniProt Q9Y5K5); test: Suramin selectivity, Ub-Rhodamine 110 assay; type: biochemical
T3 sequence (Q9Y5K5 1-329): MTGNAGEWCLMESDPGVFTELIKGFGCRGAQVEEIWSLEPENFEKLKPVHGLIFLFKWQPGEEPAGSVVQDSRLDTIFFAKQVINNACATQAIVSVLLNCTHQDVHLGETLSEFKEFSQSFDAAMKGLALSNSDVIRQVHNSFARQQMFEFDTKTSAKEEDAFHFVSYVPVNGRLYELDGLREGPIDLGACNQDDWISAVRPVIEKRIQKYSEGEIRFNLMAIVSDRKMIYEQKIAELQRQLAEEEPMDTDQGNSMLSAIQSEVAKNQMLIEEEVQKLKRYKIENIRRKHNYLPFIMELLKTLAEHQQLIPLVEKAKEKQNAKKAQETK

[9] = target: T4, JosD2 (Homo sapiens, UniProt Q8TAC2); test: Suramin selectivity, Ub-Rhodamine 110 assay; type: biochemical
T4 sequence (Q8TAC2 1-188): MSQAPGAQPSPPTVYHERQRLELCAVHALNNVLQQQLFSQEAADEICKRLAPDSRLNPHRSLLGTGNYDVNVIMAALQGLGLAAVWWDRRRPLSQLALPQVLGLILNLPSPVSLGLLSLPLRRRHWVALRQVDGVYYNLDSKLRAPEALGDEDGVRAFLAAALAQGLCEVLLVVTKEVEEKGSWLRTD

[10] = target: PLPro (Severe acute respiratory syndrome coronavirus, UniProt P0C6X7); test: biochemical
[11] = target: T1, BPLF1 1–246; test: Suramin selectivity, Ub-Rhodamine 110 assay; type: biochemical, Epstein Barr Virus (EBV)
[12] = tested on: KSHV; settings: suramin up to 10 μM; for KSHV genome copy number: qPCR of supernatant of reactivated cells
[13] = target: T5, Atax3L (Homo sapiens, UniProt Q9H3M9); test: Suramin selectivity, Ub-Rhodamine 110 assay; type: biochemical
T5 sequence (Q9H3M9 1-355): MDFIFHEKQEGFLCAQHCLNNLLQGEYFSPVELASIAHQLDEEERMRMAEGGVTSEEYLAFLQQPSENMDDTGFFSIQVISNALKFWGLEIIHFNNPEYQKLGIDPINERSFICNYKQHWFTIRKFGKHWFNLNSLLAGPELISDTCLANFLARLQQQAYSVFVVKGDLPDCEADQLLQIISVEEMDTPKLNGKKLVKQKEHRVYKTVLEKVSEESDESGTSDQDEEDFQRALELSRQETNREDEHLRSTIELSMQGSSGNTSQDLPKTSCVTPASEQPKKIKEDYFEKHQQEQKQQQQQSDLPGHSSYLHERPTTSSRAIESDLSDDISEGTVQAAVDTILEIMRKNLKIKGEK

[14] = target: T6, USP8c (Homo sapiens, UniProt P40818); test: Suramin selectivity, Ub-Rhodamine 110 assay; type: biochemical
T6 sequence (P40818 777-1109 limits assumed): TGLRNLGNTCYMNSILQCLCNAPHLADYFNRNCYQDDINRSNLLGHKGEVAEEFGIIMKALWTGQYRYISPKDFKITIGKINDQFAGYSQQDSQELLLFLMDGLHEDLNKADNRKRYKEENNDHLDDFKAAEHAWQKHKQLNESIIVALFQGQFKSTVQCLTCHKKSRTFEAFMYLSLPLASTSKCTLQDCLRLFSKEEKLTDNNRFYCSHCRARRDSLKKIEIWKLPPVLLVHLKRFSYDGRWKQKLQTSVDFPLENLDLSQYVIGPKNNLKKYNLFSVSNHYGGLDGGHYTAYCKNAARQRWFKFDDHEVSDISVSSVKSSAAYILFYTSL

[15] = tested on: pool of cellular DUBs (293T cell lysate); test: Cellular DUB activity in 293T total cell lysate, Ub-Rhodamine 110; type: biochemical; settings: 10 μM suramin, 293T lysate
[16] = target: T7, Cezanne (Homo sapiens, UniProt Q6GQQ9); test: Suramin selectivity, Ub-Rhodamine 110 assay; type: biochemical
T7 sequence (Q6GQQ9 1-843): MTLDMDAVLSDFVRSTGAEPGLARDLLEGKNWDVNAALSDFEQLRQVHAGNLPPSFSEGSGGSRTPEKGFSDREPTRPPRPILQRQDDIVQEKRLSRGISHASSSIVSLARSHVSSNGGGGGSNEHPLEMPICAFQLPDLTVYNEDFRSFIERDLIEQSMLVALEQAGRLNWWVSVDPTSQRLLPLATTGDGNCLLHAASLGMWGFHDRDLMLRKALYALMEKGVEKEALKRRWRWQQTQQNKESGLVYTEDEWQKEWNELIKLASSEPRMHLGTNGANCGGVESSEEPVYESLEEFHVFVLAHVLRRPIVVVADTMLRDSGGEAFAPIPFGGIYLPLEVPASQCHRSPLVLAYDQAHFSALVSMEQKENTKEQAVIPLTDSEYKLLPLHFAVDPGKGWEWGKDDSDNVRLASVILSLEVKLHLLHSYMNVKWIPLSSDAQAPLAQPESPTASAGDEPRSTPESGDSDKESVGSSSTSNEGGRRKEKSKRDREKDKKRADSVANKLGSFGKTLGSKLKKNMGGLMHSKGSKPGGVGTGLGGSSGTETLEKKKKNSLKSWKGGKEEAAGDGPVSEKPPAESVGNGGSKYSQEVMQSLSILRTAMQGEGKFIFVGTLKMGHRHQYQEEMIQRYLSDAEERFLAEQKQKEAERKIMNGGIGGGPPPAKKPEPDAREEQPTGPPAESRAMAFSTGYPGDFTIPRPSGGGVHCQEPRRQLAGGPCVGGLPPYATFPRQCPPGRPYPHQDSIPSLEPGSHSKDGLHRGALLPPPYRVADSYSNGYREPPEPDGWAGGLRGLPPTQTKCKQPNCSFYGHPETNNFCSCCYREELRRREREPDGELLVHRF

[17] = target: KSHV ORF64 1–205 N terminal fragment (Human herpesvirus 8 type P, UniProt Q2HR64); test: ORF64 DUB activity in Ub-Rhodamine 110 assay; settings: 10 μM suramin, 30 minutes with Ub-Rhodamine 110
KSHV ORF64 1–205 N terminal fragment, sequence (Q2HR64 1-205): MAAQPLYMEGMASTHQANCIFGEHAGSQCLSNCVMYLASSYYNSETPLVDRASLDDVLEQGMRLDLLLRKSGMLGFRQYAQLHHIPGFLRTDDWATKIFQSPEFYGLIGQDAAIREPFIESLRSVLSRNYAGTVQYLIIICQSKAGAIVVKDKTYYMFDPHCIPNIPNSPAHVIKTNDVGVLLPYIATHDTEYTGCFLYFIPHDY

T1 sequence (P03186 1-246): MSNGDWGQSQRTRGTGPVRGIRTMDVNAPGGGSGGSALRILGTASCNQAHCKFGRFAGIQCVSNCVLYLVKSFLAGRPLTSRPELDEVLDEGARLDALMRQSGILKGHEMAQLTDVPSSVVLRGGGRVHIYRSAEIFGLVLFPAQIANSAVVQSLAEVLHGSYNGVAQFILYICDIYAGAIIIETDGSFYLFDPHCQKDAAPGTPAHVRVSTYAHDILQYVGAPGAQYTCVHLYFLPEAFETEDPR

## Ub-aldehyde
[1]; 5 μM Ub-aldehyde (low signal control)
  inhibition of BPLF1 1–246 DUB activity: approximately 95%

## CC1(C)CCC2=C(O1)c1ccccc1C(=O)C2=O [beta-lapachone]
[2]
  pIC50: 5.60
[3]
  inhibition of K63-linked ubiquitin chain cleavage: inhibited K63-linked chain cleavage

## CN(N=O)c1ccc(O)c(O)c1 [Me-3,4-dephostatin]
[1]
  pIC50: < 5.00

## C[C@]12C=CC(=O)C=C1CC[C@@H]1C2=CC[C@]2(C)[C@@H](C(=O)CN3CCN(c4cc(N5CCCC5)nc(N5CCCC5)n4)CC3)CC[C@@H]12 [U-74389G maleate]
[1]
  pIC50: 5.47

## O=C(O)C1=CC(=C(c2ccc(O)c(C(=O)O)c2)c2ccc(O)c(C(=O)O)c2)C=CC1=O [Aurintricarboxylic acid]
[2]
  pIC50: 5.48

## NC(Cc1cc(O)c(O)cc1O)C(=O)O (racemic) [6-Hyd roxy-DL-DOPA]
[1]
  pIC50: < 5.00

## OC[C@H]1O[C@H]([S-])[C@H](O)[C@@H](O)[C@@H]1O.[Au+] [Aurothioglucose]
[4]
  cell growth or viability: not inhibit cell growth or viability
[5]
  infectious virus production (in words): did not result in decreased virus production
[1]
  pIC50: 5.60
[3]
  inhibition of K63-linked ubiquitin chain cleavage: inhibited K63-linked chain cleavage

## Cc1cc2c(C(C)C)c(O)c(O)c(C=O)c2c(O)c1-c1c(C)cc2c(C(C)C)c(O)c(O)c(C=O)c2c1O [Gossypol]
[2]
  pIC50: 5.52

## O=C(Nc1cccc(C(=O)Nc2ccc(S(=O)(=O)O)c3cc(S(=O)(=O)O)cc(S(=O)(=O)O)c23)c1)Nc1cccc(C(=O)Nc2ccc(S(=O)(=O)O)c3cc(S(=O)(=O)O)cc(S(=O)(=O)O)c23)c1 [NF 023]
[1]
  pIC50: 5.21

## Cc1ccc(C(=O)Nc2ccc(S(=O)(=O)O)c3cc(S(=O)(=O)O)cc(S(=O)(=O)O)c23)cc1NC(=O)c1cccc(NC(=O)Nc2cccc(C(=O)Nc3cc(C(=O)Nc4ccc(S(=O)(=O)O)c5cc(S(=O)(=O)O)cc(S(=O)(=O)O)c45)ccc3C)c2)c1 [suramin, Suramin sodium salt]
[6]
  pIC50: 5.44
[7]
  pIC50: 5.47
[8]
  pIC50: 5.82
[9]
  pIC50: 4.55
[10]
  pIC50: 5.49
[2]
  pIC50: 6.01
[11]
  pIC50: 5.48
[12]; % reactivation of latently infected cells
  KSHV reactivation from latency: no significant effect
[12]
  KSHV genome copy number: no significant effect
[12]; listed as Suramin
  KSHV genome copy number: does not inhibit genome copy production
[12]; supernatants 72 h post dox, infection of naïve 293 cells
  KSHV infectious virus production: no significant effect
[13]
  pIC50: 5.59
[14]
  pIC50: 5.52
[15]
  inhibition of the pool of cellular DUBs: about 50%
[16]
  pIC50: 5.80
[3]
  inhibition of K63-linked ubiquitin chain cleavage: inhibited K63-linked chain cleavage
[17]
  decrease in ORF64 DUB activity: > 80%

## O=C1C(SCCO)=C(SCCO)C(=O)c2ccccc21 [NSC 95397]
[1]
  pIC50: 5.32
[3]
  inhibition of K63-linked ubiquitin chain cleavage: inhibited K63-linked chain cleavage

## Cc1nc(N=Nc2cc(S(=O)(=O)O)c3cc([N+](=O)[O-])cc(S(=O)(=O)O)c3c2)c(COP(=O)(O)O)c(C=O)c1O [PPNDS tetrasodium]
[1]
  pIC50: < 5.00
